Measurements: patent US10144817B2, “Active and intelligent additive, polymer and article” (Braskem S.A., priority 2010, dated 2018)

Experiment: Decomposition temperature of sensitive compounds and of the encapsulated additives
Format: physicochemical
Details: not encapsulated
Text: The sensitive compounds set forth in Table 1 constitute preferred examples of compounds that may be used in the preparation of the active and intelligent additive according to the present invention. The sensitive compounds release a certain amount of electrons according to the characteristic reaction for each compound.

Row | Molecule | Decomposition Temperature of the Sensitive Compound [°C]
1 | Citric Acid | 175
2 | O=C1O[C@H]([C@@H](O)CO)C(O)=C1O [Ascorbic Acid] | 190
